From paper PMC10111413 (ACS Infectious Diseases, 2023)
Converted amounts (≈) assume the structure as drawn. Where a SMILES comes first, the peptide text is derived from it. Bridges are numbered along the chain shown (N, C = ends). [ ]: non-standard residue; d: D form. The star is where a group is joined. ξ: configuration not given here. Hexanoyl(4ξ-Me) = CCC(C)CCC(=O)*; dOrn = NCCC[C@@H](N)C(=O)O; Orn = NCCC[C@H](N)C(=O)O; Dap = NC[C@H](N)C(=O)O

Assays:
[1] = test system: S. aureus USA300; assay type: cell-based; settings: USA300, 18 h
Procedure: (§1) The antibacterial activities of relacidine A (3a) and B (4a), along with diastereomers 3b and 4b–d and relacidamide (5), were assessed using a standard microbroth dilution assay to establish minimum inhibitory concentration (MIC) values against a panel of Gram-negative bacteria (Table 1). The MIC values measured for synthetic relacidine A (3a) and B (4a) agree well with those previously published.[9] […] Relacidine A (3a) and B (4a), as well as relacidamide (5), were further tested against a panel of colistin-resistant A. baumannii clinical isolates, which confirmed their ability to prevent the growth of colistin-resistant isolates (Supplemental Table S2). […] Also of interest was the finding that while relacidine B (4a) induced <1% hemolysis, a substitution of either the L-Ala or L-Ser to D-Ala or D-Ser increased hemolytic activity to 8–12%. […] The greater hydrolytic stability of relacidine B would appear to be attributable to the increased steric bulk of the Ala side chain next to the ester linkage (compared with the methylene of Gly in relacidine A), which may hinder the nucleophilic attack of water at the ester carbonyl.
(§2) Colistin sulfate was purchased from Activate Scientific. Kanamycin monosulfate was purchased from MP Biomedicals. E. coli ATCC 25922, S. aureus USA300 (ATCC BAA1717), and K. pneumoniae ATCC 13883 belong to the American Type Culture Collection (ATCC). P. aeruginosa PAO1 was kindly provided by L.H.C. Quarles Van Ufford of Utrecht University, Utrecht, The Netherlands. E. coli ATCC 25922 MCR-1 was transfected in-house using the pGDP2-MCR1 plasmid kindly provided by Yong-Xin Li of The University of Hong Kong, Hong Kong, China. Sheep blood agar plates (ref. PB5039A) were purchased from Thermo Scientific. Tryptic soy broth (ref. 02-200-500) was purchased from Scharlab. Mueller-Hinton broth (ref. X927.1) was purchased from Carl Roth. Polypropylene 96-wells plates (ref. 3879) were purchased from Corning.
(§3) MICs were determined according to Clinical and Standards Laboratory Institute (CLSI) guidelines. Blood agar plates were inoculated with glycerol stocks of E. coli ATCC 25922, K. pneumoniae ATCC 13883, P. aeruginosa PAO1, and S. aureus USA300. The inoculated agar plates were then incubated for 16 h at 37 °C. Individually grown colonies were subsequently used to inoculate 5 mL aliquots of tryptic soy broth (TSB) that were then incubated at 37 °C with shaking at 220 rpm. E. coli 25922 MCR-1 glycerol stock was used to inoculate 5 mL of TSB supplemented with kanamycin that was then incubated for 16 h at 37 °C with shaking at 220 rpm. The next day, the culture was diluted 100-fold in TSB supplemented with kanamycin and incubated at 37 °C with shaking at 220 rpm. In parallel, the lipopeptide antibiotic DMSO stocks to be assessed were serially diluted with Mueller Hinton broth (MHB) in polypropylene 96-well plates (50 μL in each well). Colistin sulfate stocks were dissolved in water before being diluted with MHB. Aliquots of the inoculated TSB were incubated until an OD600 of around 0.5 was reached. The bacterial suspensions were then diluted with MHB (2 × 10^5 cfu mL^–1) and added to the microplates containing the test compounds (50 μL to each well). The well plates were sealed with an adhesive membrane, and after 18 h of incubation at 37 °C with shaking at 600 rpm, the wells were visually inspected for bacterial growth. MIC values reported are based on three technical replicates and defined as the lowest concentration of the compound that prevented visible growth of bacteria.

[2] = test system: E. coli ATCC 25922 mcr-1; assay type: cell-based; settings: CLSI microbroth dilution, Mueller Hinton broth, 18 h at 37 °C, visual read-out, three technical replicates; mcr-1 colistin resistance plasmid
Procedure: as §1, §2, §3

[3] = test system: P. aeruginosa PAO1; assay type: cell-based; settings: PAO1, 18 h
Procedure: as §1, §2, §3

[4] = test system: K. pneumoniae ATCC 13883; assay type: cell-based; settings: ATCC 13883, 18 h
Procedure: as §1, §2, §3

[5] = test system: E. coli ATCC 25922; assay type: cell-based; settings: ATCC 25922, 18 h
Procedure: as §1, §2, §3

[6] = test system: G. mellonella larvae; settings: in vivo
Description: Given the promising in vitro activity of relacidamide (5), along with its high serum stability, low hemolytic activity, and ease of synthesis, we further evaluated its efficacy in an established in vivo infection model using G. mellonella larvae. The G. mellonella infection model has gained popularity in recent years and provides a convenient method to assess the in vivo effectiveness and toxicity of novel antibiotics.[15],[16] […] The larvae were first injected with either vehicle (PBS) or A. baumannii BV94 suspension in the right second proleg. The moth larvae were then injected in the left second proleg with either PBS (untreated), colistin at 100 mg/kg or 200 mg/kg, or relacidamide (5) at 100 mg/kg or 200 mg/kg. The G. mellonella larvae were then incubated for 72 h, and their survival was assessed twice per day. Relacidamide (5) induced 50% survival after 72 h at 100 mg/kg and 70% survival at 200 mg/kg, whereas none of the larvae treated with colistin survived, and only 10% of the untreated larvae survived after 72 h.

[7] = test system: A. baumannii NCTC 13304; assay type: cell-based; settings: NCTC 13304, 18 h
Procedure: (§4) VIII. Antimicrobial testing
(§5) Table S2. Minimum inhibitory concentrations (MICs) determined against panel of previously characterized colistin-resistant A. baumannii clinical isolates5
(§6) Strain Relacidine A (3a) Relacidine B (4a) Relacidamide (5) Colistin […]
(§7) aMIC values given in µg/ml.
(§8) All minimum inhibitory concentrations were determined according to Clinical and Standards Laboratory Institute (CLSI) guidelines. Blood agar plates were inoculated from glycerol stocks of the different A. baumannii strains used and then incubated for 16 h at 37 °C . Individually grown colonies were subsequently used to inoculate 5 mL aliquots of TSB that were then incubated at 37 °C. In parallel, the lipopeptide antibiotics DMSO stocks to be assessed were serially diluted with cation-adjusted MHB in polypropylene 96-well plates (50 µL in each well). Colistin sulfate stocks were dissolved in water before being diluted with cation-adjusted MHB. The A. baumannii inoculated TSB aliquots were incubated until an OD600 of around 0.5 was reached. The bacterial suspensions were then diluted with cation-adjusted MHB (2 x 10^5 CFU mL-1) and added to the microplates containing the test compounds (50 µL to each well). The well-plates were sealed with an adhesive membrane and after 18 h of incubation at 37 °C visually inspected for bacterial growth. MIC values reported are based on three technical replicates and defined as the lowest concentration of the compound that prevented visible

[8] = test system: A. baumannii BV172; assay type: cell-based; settings: BV172, 18 h
Procedure: as §4, §5, §6, §7, §8

[9] = test system: A. baumannii HUMC1; assay type: cell-based; settings: HUMC1, 18 h
Procedure: as §4, §5, §6, §7, §8

[10] = test system: A. baumannii NCTC 13420; assay type: cell-based; settings: NCTC 13420, 18 h
Procedure: as §4, §5, §6, §7, §8

[11] = test system: A. baumannii BV94; assay type: cell-based; settings: BV94, 18 h
Procedure: as §4, §5, §6, §7, §8

[12] = test system: A. baumannii LAC-4; assay type: cell-based; settings: LAC-4, 18 h
Procedure: as §4, §5, §6, §7, §8

[13] = test system: A. baumannii BV95; assay type: cell-based; settings: BV95, 18 h
Procedure: as §4, §5, §6, §7, §8

[14] = test system: A. baumannii ATCC 17978; assay type: cell-based; settings: ATCC 17978, 18 h
Procedure: as §4, §5, §6, §7, §8

[15] = test system: A. baumannii BV173; assay type: cell-based; settings: BV173, 18 h
Procedure: as §4, §5, §6, §7, §8

[16] = human serum (obtained from Sigma Aldrich, product number: H4522); settings: 37 °C, up to 24 h

## CCC(C)CCC(=O)N[C@H](CO)C(=O)N[C@H](Cc1ccc(O)cc1)C(=O)N[C@H](Cc1c[nH]c2ccccc12)C(=O)N[C@H](CCCN)C(=O)N[C@@H](CCCN)C(=O)NCC(=O)N[C@H](CCCN)C(=O)N[C@@H](Cc1c[nH]c2ccccc12)C(=O)N[C@H]1CNC(=O)CNC(=O)[C@H](CO)NC(=O)CNC(=O)[C@H]([C@@H](C)CC)NC1=O (stereo partly shown) [compound 5, Relacidamide] ({Hexanoyl(4ξ-Me)}-[dS][dY][dW][dOrn][Orn]G[dOrn]W[Dap]IGSG; lactam 9-C)
[1]
  MIC S. aureus USA300: >32 µg/mL
[2]
  MIC E. coli ATCC 25922 mcr-1: 2 to 4 µg/mL
[3]
  MIC P. aeruginosa PAO1: 8 µg/mL (≈ 5.21 µM)
[4]
  MIC K. pneumoniae ATCC 13883: 4 µg/mL (≈ 2.61 µM)
[5]
  MIC E. coli ATCC 25922: 2 to 4 µg/mL
[6]
  tolerability in G. mellonella larvae: well tolerated up to the highest tested dose
[7]
  MIC A. baumannii NCTC 13304: 4 µg/mL (≈ 2.61 µM)
[8]
  MIC A. baumannii BV172: 16 µg/mL (≈ 10.4 µM)
[9]
  MIC A. baumannii HUMC1: 8 µg/mL (≈ 5.21 µM)
[10]
  MIC A. baumannii NCTC 13420: 16 µg/mL (≈ 10.4 µM)
[11]
  MIC A. baumannii BV94: 8 µg/mL (≈ 5.21 µM)
[12]
  MIC A. baumannii LAC-4: 8 µg/mL (≈ 5.21 µM)
[13]
  MIC A. baumannii BV95: 8 µg/mL (≈ 5.21 µM)
[14]
  MIC A. baumannii ATCC 17978: 4 µg/mL (≈ 2.61 µM)
[15]
  MIC A. baumannii BV173: 16 µg/mL (≈ 10.4 µM)

## D-Ser1 D-Tyr2 D-Trp3 D-Orn4 Orn5 Gly6 D-Orn7 Trp8 Thr9 Ile10 Gly11 Ser12 Ala13 Lipid
[16]
  not cleaved: highly resistant to degradation in human serum even after 24 h of incubation
